Values joined by “and” are separate entries in the source; they are usually repeats but may differ in a detail not shown here. Identical values can stand only once. Like-named read-outs stand apart in the source and are kept apart here. One block for each compound: values may come before it.
Legend:
[1] = tested on: E. coli (ATCC 25922); experiment: Inactivation of E. coli by disinfectants (membrane filter enumeration, contact time 5 min); type: cell-based, Escherichia coli; conditions: for log reduction at 475 µg/mL / EC (3-log inactivation) / log reduction at 1500 µg/mL / log reduction at 115 µg/mL: Escherichia coli, ATCC25922, 5 min; for log reduction at 475 µg/mL: dose 475 mg L-1; for log reduction at 475 µg/mL / log reduction at 1500 µg/mL / log reduction at 115 µg/mL: 5 min; for log reduction at 1500 µg/mL: dose 1500 mg L-1; for log reduction at 1500 µg/mL / log reduction at 115 µg/mL: read-out: Log (N/N0); for log reduction at 115 µg/mL: dose 115 mg L-1
Procedure: The chemicals and reagents used are detailed in Supplementary Note 1. The bacteria E. coli (ATCC 25922) and S. aureus (ATCC 25923) were cultured aerobically in Luria-Bertani broth (Sigma-Aldrich) and Tryptone Soya broth (Oxoid), respectively, at 37 °C for 16 h. The fungus C. albicans (ATCC 14053) was aerobically cultured in Sabouraud Dextrose broth (Difco) at 37 °C for 24 h. The microorganism cells were harvested by centrifugation at 1200×g (10 min, 4 °C) and resuspended in phosphate-buffered saline (PBS, 10 mM, pH 7.2). The disinfection experiments were performed in PBS solutions (10 mM, pH 7.2) with an initial concentration of E. coli, S. aureus, or C. albicans of 10^6‒10^7 cells per milliliter. A contact time of 5 min was used in accordance with the recommended time range of 0.25–10 min by USEPA for surface disinfection. Preliminary tests were conducted to determine the appropriate range of DBP doses. The appropriate dose range was established when the lowest and highest doses could achieve <1-log and >3-log of microbial inactivation, respectively. Based on the preliminary results, a series of doses of DBPs were added to the cell suspensions at room temperature (22 ± 1 °C). After the contact time of 5 min, the microorganism cells were enumerated following a membrane filter method. Briefly, serial 10-fold dilutions were conducted for the disinfected samples and the control sample without disinfection. Each diluted suspension was subjected to filtration through 0.45-μm membrane, which was then placed on a petri dish. The Petri dishes containing E. coli, S. aureus, and C. albicans were incubated in m-FC medium (Becton Dickinson & Co) at 45 °C for 24 h, in Tryptone Soya broth at 37 °C for 24 h and in Sabouraud Dextrose broth at 37 °C for 24 h, respectively. After incubation, the colony-forming units within a statistically reasonable range (20–80) were counted.
The impact of pH on the disinfection efficiencies of DBPs was examined. E. coli (ATCC 25922) was used as the test strain. The disinfection experiments were performed in 10 mM PBS solutions (pH 6.2, 7.2, and 8.2) with an initial E. coli concentration of 10^6‒10^7 cells per milliliter. To initiate the disinfection, a DBP was dosed with a bacteria suspension at a predetermined concentration. After the given contact time (5 min) at room temperature (22 ± 1 °C), the bacteria were enumerated following the membrane filter method. The bacteria concentrations in the 10 mM PBS solutions (pH 6.2, 7.2, and 8.2) without the addition of DBPs were used as controls.

[2] = tested on: P. dumerilii embryos; experiment: Developmental toxicity assay with P. dumerilii embryos, dilution factor of in-use concentration (EC50,DF), also after degradation in darkness; type: in vivo, Platynereis dumerilii
Description: The DBP doses for 3-log E. coli reduction (pH 7.2) were set as the in-use concentrations, which were serially diluted and added to the P. dumerilii embryos at 12-h postfertilization. A dilution factor was defined as the ratio of the in-use concentration to the exposure concentration. Each exposure set contained a control sample (i.e., the embryos at 12-h postfertilization developed in seawater without the addition of DBPs). By 24-h postfertilization, normally developed embryos should have reached the first larval stage. An inverted stereomicroscope (×40 magnification) was used to observe the larvae. The normal development percentage was calculated as the ratio of normally developed embryos to total embryos. By plotting the curve of the normal development percentage versus the dilution factor, the EC50,DF value (i.e., the dilution factor corresponding to 50% of the normal development percentage of the control sample) was obtained using SigmaPlot 12. The developmental toxicity test was conducted in duplicate.

[3] = physchem; conditions: for half-life at 10 mg L−1: pH 8.2; for Ln (C/C0): seawater pH 8.2, solar irradiation
Procedure: The solar photolysis experiments were conducted in a chamber equipped with eight simulated sunlight full-spectrum lamps (BlueMax 5900, Full Spectrum Solutions). The temperature in the chamber was maintained at 20 °C. The total intensity of simulated sunlight was determined using a digital photometer (DT-1010B, Shenzhen Golden Octopus, China). Quartz flasks were positioned in the chamber where the total intensity of simulated sunlight was 4.79 ± 0.04 mW cm^−2 for each quartz flask. […] A DBP was added at 10 mg L^−1 to 50 mL pretreated seawater (pH 8.2) in the quartz flasks and exposed to the simulated solar irradiation for 0‒96 h. Every 8 h, the quartz flasks were rotated in and out of the chamber, and the sample volume was determined and adjusted with ultrapure water to account for any water evaporation. During the solar irradiation experiments, the sample was adjusted to pH 6.2 and 7.2 or maintained at pH 8.2 by adding 4 mM phosphate buffer (pH 6.2, 7.2, and 8.2, respectively).
(§1) For the DBP samples with and without sunlight, aliquots were taken at a specific reaction time. The sample aliquots were analyzed using Agilent high-performance liquid chromatography (HPLC) equipped with a Poroshell 120 EC-C18 column (4.6 × 150 mm, 4 µm particle size, Agilent) and a UV detector. The mobile phase, consisting of water (pre-adjusted to pH 2 with phosphoric acid) and acetonitrile at 50/50 (v/v), was applied at a flow rate of 1.0 mL min^−1. PCMX, 2,4-dihalophenols and 5-halosalicylic acids were detected at the wavelength of 230 nm. 2,5-Dihalohydroquinones and 2,6-DCQ were detected at the wavelength of 280 nm. All the degradation experiments were conducted in duplicate.

[4] = Degradation in seawater in darkness (pH 6.2, 7.2, 8.2); conditions: for Ln (C/C0): seawater pH 8.2, darkness
Procedure: To study the DBP degradation in seawater in darkness, a DBP was added at 10 mg L^−1 to 50 mL pretreated seawater (pH 8.2) in the quartz flasks. The flasks were wrapped with aluminum foil to simulate the dark condition. The samples were kept at 20 °C in darkness for 0‒120 h, during which the sample was adjusted to pH 6.2 and 7.2 or maintained at pH 8.2 by adding 4 mM phosphate buffer (pH 6.2, 7.2, and 8.2, respectively).
as §1

[5] = pH 7.2, contact time 5 min, read-out: Dose for achieving 3-log inactivation of E. coli

Structure (SMILES): Oc1ccc(Cl)cc1Cl [2,4-DCPh, 2,4-Dichlorophenol]
log reduction at 475 µg/mL ([1]; pH 6.2, read-out: Log (N/N0), E. coli, pH 6.2): 3.02
EC (3-log inactivation) ([1]; pH 7.2, read-out: Dose for achieving 3-log inactivation of E. coli): 472 µg/mL
log reduction at 475 µg/mL ([1]; pH 7.2, read-out: Log (N/N0), E. coli, pH 7.2): 3.32
log reduction at 475 µg/mL ([1]; pH 8.2, read-out: Log (N/N0), E. coli, pH 8.2): 3.29
E. coli inactivation rate constant k ([1]; pH 7.2, contact time 5 min): 0.30 L mg‒1 h‒1
Normal development (%) ([2]; dilution factor 9.6524): 0%
Normal development (%) ([2]; dilution factor 13.1623): 7.691% and 7.509%
Normal development (%) ([2]; dilution factor 16.0873): 35.5728% and 39.4272%
Normal development (%) ([2]; dilution factor 20.6836): 55.5625% and 48.4375%
Normal development (%) ([2]; dilution factor 28.9571): 80.2893% and 76.7107%
Normal development (%) ([2]; dilution factor 57.9141): 81.6957% and 84.3043%
half-life at 10 mg L−1 ([3]; buffer): 45 h
Ln (C/C0) ([3]; 0 h): 0
Ln (C/C0) ([4]; 0 h): 0
Ln (C/C0) ([4]; 24 h): 0.008094 and 0.006005
Ln (C/C0) ([4]; 48 h): 0.007156 and 0.006397

half-life at 10 mg L−1 ([3]; pretreated seawater under simulated solar irradiation): 0.16 h
Ln (C/C0) ([3]; 0 min): 0
Relative concentration remaining (1 at 0 min) ([4]; pH 6.2, degradation time 0 min): 1
Relative concentration remaining (1 at 0 min) ([4]; pH 6.2, degradation time 15 min): 0.9903 and 1.013
Relative concentration remaining (1 at 0 min) ([4]; pH 6.2, degradation time 30 min): 1.0399 and 0.9876
Relative concentration remaining (1 at 0 min) ([4]; pH 6.2, degradation time 60 min): 1.018 and 0.9782
Relative concentration remaining (1 at 0 min) ([4]; pH 6.2, degradation time 90 min): 1.002 and 0.9911
Relative concentration remaining (1 at 0 min) ([4]; pH 6.2, degradation time 120 min): 0.974 and 0.967
Relative concentration remaining (1 at 0 min) ([4]; pH 6.2, degradation time 180 min): 0.9787 and 0.9462
Relative concentration remaining (1 at 0 min) ([4]; pH 6.2, degradation time 240 min): 0.9527 and 0.9358
Relative concentration remaining (1 at 0 min) ([4]; pH 7.2, degradation time 0 min): 1
Relative concentration remaining (1 at 0 min) ([4]; pH 7.2, degradation time 15 min): 1.006 and 0.9535
Relative concentration remaining (1 at 0 min) ([4]; pH 7.2, degradation time 30 min): 0.9742 and 0.9233
Relative concentration remaining (1 at 0 min) ([4]; pH 7.2, degradation time 45 min): 0.8634 and 0.8365
Relative concentration remaining (1 at 0 min) ([4]; pH 7.2, degradation time 60 min): 0.7743 and 0.7531
Relative concentration remaining (1 at 0 min) ([4]; pH 7.2, degradation time 90 min): 0.6443 and 0.5863
Relative concentration remaining (1 at 0 min) ([4]; pH 7.2, degradation time 120 min): 0.5356 and 0.4974
Relative concentration remaining (1 at 0 min) ([4]; pH 7.2, degradation time 180 min): 0.3959 and 0.345
Relative concentration remaining (1 at 0 min) ([4]; pH 8.2, degradation time 0 min): 1
Relative concentration remaining (1 at 0 min) ([4]; pH 8.2, degradation time 3 min): 0.7301 and 0.7188
Relative concentration remaining (1 at 0 min) ([4]; pH 8.2, degradation time 8 min): 0.5509 and 0.4986
Relative concentration remaining (1 at 0 min) ([4]; pH 8.2, degradation time 12 min): 0.3915 and 0.3688
Relative concentration remaining (1 at 0 min) ([4]; pH 8.2, degradation time 16 min): 0.2832 and 0.2676
Relative concentration remaining (1 at 0 min) ([4]; pH 8.2, degradation time 20 min): 0.2193 and 0.1797
Relative concentration remaining (1 at 0 min) ([4]; pH 8.2, degradation time 25 min): 0.1418 and 0.1248
half-life at 10 mg L−1 ([4]; pretreated seawater in darkness, pH 8.2): 9 min
Ln (C/C0) ([4]; 0 min): 0
Structure (SMILES): Oc1cc(Br)c(O)cc1Br [2,5-DBHQ, 2,5-dibromohydroquinone]
log reduction at 1500 µg/mL ([1]; pH 6.2, E. coli, pH 6.2): 1.35
log reduction at 1500 µg/mL ([1]; pH 7.2, E. coli, pH 7.2): 3.28
log reduction at 1500 µg/mL ([1]; pH 8.2, E. coli, pH 8.2): 3.84
EC (3-log inactivation) [1, 5]: 1450 µg/mL
E. coli inactivation rate constant k ([1]; pH 7.2, contact time 5 min): 0.03 L mg‒1 h‒1
Normal development (%) ([2]; dilution factor 366.306): 0%
Normal development (%) ([2]; dilution factor 439.567): 8.76% and 2.206%
Normal development (%) ([2]; dilution factor 549.459): 13.3508% and 11.7022%
Normal development (%) ([2]; dilution factor 732.612): 55.6452% and 53.271%
Normal development (%) ([2]; dilution factor 1098.92): 74.7747% and 73.7705%
Normal development (%) ([2]; dilution factor 2197.84): 91.7072% and 82.9908%

Structure (SMILES): Oc1ccc(I)cc1I [2,4-DIPh, 2,4-diiodophenol]
log reduction at 115 µg/mL ([1]; pH 6.2, E. coli, pH 6.2): 3.33
log reduction at 115 µg/mL ([1]; pH 7.2, E. coli, pH 7.2): 2.77
log reduction at 115 µg/mL ([1]; pH 8.2, E. coli, pH 8.2): 3.02
EC (3-log inactivation) [1, 5]: 112 µg/mL
E. coli inactivation rate constant k ([1]; pH 7.2, contact time 5 min): 0.79 L mg‒1 h‒1
Normal development (%) ([2]; dilution factor 14.7221): 3.475% and 5.221%
Normal development (%) ([2]; dilution factor 16.1943): 15.5532% and 11.251%
Normal development (%) ([2]; dilution factor 17.0467): 28.4871% and 30.5605%
Normal development (%) ([2]; dilution factor 17.9937): 62.9083% and 58.6107%
Normal development (%) ([2]; dilution factor 19.0522): 71.0249% and 62.3085%
Normal development (%) ([2]; dilution factor 21.5924): 85.4546% and 82.7272%
half-life at 10 mg L−1 ([3]; buffer): 83 h
Ln (C/C0) ([3]; 0 h): 0
Ln (C/C0) ([4]; 0 h): 0
Ln (C/C0) ([4]; 24 h): 0.00447 and 0.004669
Ln (C/C0) ([4]; 48 h): 0.01674 and 0.0143

From article PMC11161644, “An effective and rapidly degradable disinfectant from disinfection byproducts” (Nature Communications, 2024)
